“Also recorded” adds a separate entry of the source.
Experiments:
[1] = Dose-ranging clinical trial of GW320659 for weight loss: absolute change in body weight week 0 to week 24, by genotype; type: in vivo, human; conditions: for Placebo adjusted mean absolute change in body weight / Placebo adjusted mean absolute change in weight: 15 mg dose group
Description: The present inventors determined that the genetic polymorphisms identified herein are associated with differences in phenotypic response to treatment with the neuronal monoamine reuptake inhibitor GW320659. In the present study, the genotyped subjects had been recruited from a randomized placebo-controlled study of GW320659 for the treatment of obesity, in conjunction with a mildly hypocaloric diet and brief weight management guidance. Subjects had been randomized into one of five treatment groups: placebo or GW320659 at 2.5 mg/day, 5 mg/day, 10 mg/day, or 15 mg/day; outcome measurements included weight loss over baseline weight and changes in supine heart rate, supine diastolic blood pressure, and supine systolic blood pressure.
The primary outcome measurement was the individual's absolute change from baseline body weight (weight at week 0, randomization visit) to weight after 24 weeks of treatment. Genotypes associated with at least a 5.8 kg average weight loss over the 24 week study for subjects receiving 15 mg/day GW320659 are shown in Table 2. The average weight loss in the total (non-genotyped) clinical trial of GW320659 (at the 15 mg/day dosage) was 3.7 Kg (data not shown).
(§1) Using genotyping methods as are well known in the art, genetic data were obtained from approximately 200 of more than 500 human subjects enrolled in a dose-ranging efficacy and safety study of GW320659 for weight loss (main study group; a randomized, double-blind, placebo controlled, dose-ranging clinical trial); GW320659 was used in conjunction with a mildly hypocaloric diet and brief weight management guidance. Subjects were between the ages of 18-65 years, with a Body Mass Index (BMI) of 30-40, and were not on any psychotropic medications or other anti-obesity medications. Subjects were randomized into one of five treatment groups: placebo or GW320659 at 2.5 mg/day, 5 mg/day, 10 mg/day, or 15 mg/day (oral administration). In the main study group, for the GW320659 15 mg/day dosage, average weight loss was approximately 3.7 kg (108 subjects; data not shown).
(§2) Subjects were assessed for various parameters, including absolute change in body weight from week 0 to week 24 of the study; supine heart rate, diastolic blood pressure and systolic blood pressure at multiple predetermined time-points across the study; and change in Food Craving Inventory (Total) score from week 0 to week 24.
Change in body weight was analyzed using Analysis of Variance (ANOVA); body weight at Week 0 (randomization visit) was used as the baseline weight. The absolute change from baseline in body weight at week 24 was the dependent (response) variable. The primary independent variables were treatment group and genotype. Treatment by genotype interaction was assessed with the appropriate orthogonal trend (treatment) by genotype contrasts. […] The primary model is denoted as follows:
Recursive partioning (HelixTree Software, May 1, 2001) was used to further examine the data. Due to sample size constraints, a combination of automatic and manual splits were used to best describe the underlying relationships between genotypes, treatment dose, and other demographic variables for each selected endpoint. Recursive partioning was applied to the following endpoints: change in weight, change in food craving (total score) inventory, change (Area Under the Curve (AUC) adjusted) in supine heart rate, and change (AUC adjusted) in supine diastolic blood pressure.
The multilocus genotypes from each individual were used to enumerate all possible haplotypes. These haplotypes were assigned starting frequencies. The haplotype frequencies were updated with frequencies calculated from all the possible haplotypes from each individual in the sample. This continued until the frequencies were constant from iteration to iteration.
Regression-based models were used to relate inferred haplotype probabilities for each individual with the continuous response.

[2] = Clinical trial of GW320659: change in supine diastolic blood pressure (time-adjusted AUC), by genotype; type: in vivo, human
Description: as §1, §2
Analyses of changes in cardiovascular endpoints (HR, SBP, DBP, all measured in supine subjects) were conducted individually for each of the polymorphic sites, and analyzed as follows. Vital sign assessments at all post-baseline visits were analyzed utilizing a repeated measures (mixed) ANOVA model. Genotype by treatment interactions were assessed. The following model was used.
If the treatment by time interaction was non-significant, the corresponding term was planned to be removed from the model, prior to assessing treatment by genotype interaction. Subsequently, this term was removed for all vital signs analyses. In addition, vital signs data was analyzed utilizing a time-weighted area under the curve (adjusted for baseline) analysis. Model #2 (used for the efficacy analyses) was employed for these analyses.
Supine heart rate (HR), supine systolic blood pressure (SBP) and supine diastolic blood pressure (DBP) were assessed at various fixed intervals across the duration of the study. Summaries and analyses were conducted on the “area under the curve” (AUC) values (adjusted for time on study and baseline). All reported p-values in this section refer to AUC analyses, using Model No.2 as described above.
Accordingly, for some recursive partioning analysis the treatment groups were split in this manner (15 mg versus all other groups). The p-value threshold was set 0.10 (the minimum level necessary to get further automatic splits). The software then determined the remaining splits for the 15 mg group. […]

norepinephrine uptake = conditions: Kelley et al., J. Med. Chem. 39:347 (1996); cited from earlier work
[3] = NET1 T342C (2,2) and without DRD2 C12121T (2,2), 10 mg/day or 15 mg/day
[4] = subgroup 2/2 NET1T342C and/or 2/2 NET1G155A and/or 2/2 NR1G6435A, 10 mg/day+15 mg/day, 26 subjects

## C[C@@H]1CO[C@@](O)(c2cc(F)cc(F)c2)[C@H](C)N1.Cl [GW320659, (2S,3S,5R)-2-(3,5-difluorophenyl)-3,5-dimethyl-2-morpholinol]
[1]; 15 mg/day oral, 108 subjects, data not shown
  Average weight loss, main study group: approximately 3.7 kg
[1]; 15 mg/day, 24 weeks, not divided by genotype, data not shown
  Average weight loss, total (non-genotyped) clinical trial: 3.7 kg
[1]; 5HTT Del-Ins (1,2) genotype, 15 mg/day dose
  Average weight loss: -5.2 kg
[1]; 5HTT G160A genotype 2,2, 15 mg/day, 24 weeks
  Average Weight Loss (Kg)(range): −6.1 (−10.3, −3.2) Kg
[1]; 5HTT G769T genotype 1,1, 15 mg/day, 24 weeks
  Average Weight Loss (Kg)(range): −6.0 (−9.5, −3.2) Kg
[1]; DAT1 genotype 9,9, 15 mg/day, 24 weeks
  Average Weight Loss (Kg)(range): −7.6 (−22.1, −1.1) Kg
[1]; DAT1 genotype 10,9, 15 mg/day, 24 weeks
  Average Weight Loss (Kg)(range): −6.6 (−20.4, 1.3) Kg
[1]; NET1 C120A genotype 2,2, 15 mg/day, 24 weeks
  Average Weight Loss (Kg)(range): −5.8 (−20.4, 1.3) Kg
[1]; NET1 G155A 2,2 genotype, 15 mg dose, n=4
  Absolute change in weight (largest for any sub-group): -9.0 kg
[1]; NET1 G155A genotype 2,2, 15 mg/day, 24 weeks
  Average Weight Loss (Kg)(range): −9.0 (−20.4, −3.3) Kg
[1]; NET1 T342C 2,2 genotype, 15 mg dose, n=7
  Mean absolute change in weight: -7.1 kg
[1]; [3]
  Weight loss compared to subjects with alternate genotypes: increased weight loss
[1]; NET1 T342C genotype 1,1
  Placebo adjusted mean absolute change in body weight: -2.8 kg
[1]; NET1 T342C genotype 1,2
  Placebo adjusted mean absolute change in body weight: -3.3 kg
[1]; NET1 T342C genotype 2,2
  Placebo adjusted mean absolute change in body weight: -7.3 kg
[1]; NET1 T342C genotype 2,2, 15 mg/day, 24 weeks
  Average Weight Loss (Kg)(range): −7.1 (−13.7, 0) Kg
[1]; NR1 G1001C genotype 1,2, 15 mg/day, 24 weeks
  Average Weight Loss (Kg)(range): −6.0 (−13.7, −0.9) Kg
[1]; NR1 G6435A genotype 1,1
  Placebo adjusted mean absolute change in weight: -4.4 kg
[1]; NR1 G6435A genotype 1,2
  Placebo adjusted mean absolute change in weight: -1.9 kg
[1]; NR1 G6435A genotype 2,2, three placebo and four GW320659 subjects
  Placebo adjusted mean absolute change in weight: -10.3 kg
[1]; NR1 G6435A genotype 2,2, 15 mg/day, 24 weeks
  Average Weight Loss (Kg)(range): −6.9 (−9.2, −3.3) Kg
[1]; haplotype 1,1 NET1G155A NET1T342C, All Ethnicities, 10-15 mg (Table 4)
  Weight Loss at 24 weeks, Mean: −2.007
[1]; haplotype 1,1 NET1G155A NET1T342C, Caucasians, 10-15 mg (Table 5)
  Weight Loss at 24 weeks, Mean: −1.739
[1]; haplotype 1,2 NET1G155A NET1T342C, All Ethnicities, 10-15 mg (Table 4)
  Weight Loss at 24 weeks, Mean: −4.325
[1]; haplotype 1,2 NET1G155A NET1T342C, Caucasians, 10-15 mg (Table 5)
  Weight Loss at 24 weeks, Mean: −4.416
[1]; haplotype 2,1 NET1G155A NET1T342C, All Ethnicities, 10-15 mg (Table 4)
  Weight Loss at 24 weeks, Mean: −3.886
[1]; haplotype 2,1 NET1G155A NET1T342C, Caucasians, 10-15 mg (Table 5)
  Weight Loss at 24 weeks, Mean: −2.9211
[1]; haplotype 2,2 NET1G155A NET1T342C, All Ethnicities, 10-15 mg (Table 4)
  Weight Loss at 24 weeks, Mean: −9.99
[1]; haplotype 2,2 NET1G155A NET1T342C, Caucasians, 10-15 mg (Table 5)
  Weight Loss at 24 weeks, Mean: −9.413
[1]; subgroup 2,2 for NET1T342C and/or NET1G155A and/or NR1G6435A, 10 mg/day+15 mg/day combined, 24 weeks
  Mean weight loss: 6.05 kg
[1]; [4]
  Change in weight at Week 24: -6.05 kg
[1]; subgroup 2/2 for NET1T342C and not 2/2 for DRD2C12121T
  Mean weight loss at 24 weeks: ≥ 6 kg
[1]; subgroup DAT1VNTR 10,9 or 9,9, 15 mg/day, 24 weeks
  Mean weight loss: 6.89 kg
[2]; [3]
  Changes in diastolic blood pressure compared to subjects with alternate genotypes: decreased changes in heart rate and blood pressure; also recorded: comparatively small changes in HR, SBP and DBP
[2]; subgroup 2,2 for NET1T342C and/or NET1G155A and/or NR1G6435A, 10 mg and 15 mg combined
  Mean rise in DBP: 2.4 mmHG
[2]; subgroup 2,2 for NET1T342C and/or NET1G155A and/or NR1G6435A, 10 mg/day+15 mg/day, not significantly different from placebo
  Overall mean time-adjusted change in Diastolic Blood Pressure, mean rise: 2.4 mm Hg
[2]; [4]
  Diastolic Blood Pressure (mean time adjusted change): 2.431
Norepinephrine uptake
  Inhibition of norepinephrine uptake: potent, selective inhibitor of norepinephrine uptake

Reference: patent publication US20030100479A1, “Gene polymorphisms and response to treatment” (priority 2001, published 2003)
